Like-named read-outs stand apart in the source and are kept apart here.
Key:
[1] = system: adult patients infected by SARS-CoV-19 (COVID-19); details: oral DA 30, 60 or 100 mg/kg BID for up to ten days; paper example
[2] = system: female CD-1 mice
[3] = system: CD-1 mice; details: for Tolerability: mouse, in vivo
[4] = system: female CD-1 mice; details: for BALF Protein Concentration Mean / BALF Protein Conc. Mean / Total Neutrophil Count per Lavage, Mean: group mean
Protocol: The protocols obtained 30 or 18 female CD-1 mice (Charles River Lab) and monitored daily for body condition and health status during the 3-5 days acclimation period.
At time 0, the mice were weighed. LPS was prepared 1 mg LPS in 1 ml phosphate buffered saline (PBS) to get a final concentration of 1 mg/mL. Dosed 50 μl intratracheally to the mice at time 0. For the N=30 or 18 mice in an incubator, temperature was set to achieve a core temperature of 39° C. as measured by a calibrated thermometer inserted through the top lid of the incubator with the bulb at the level of the mouse cages in the incubator (set temperature knob at 36.7° C.). In addition, a rectal probe to confirmed core temperature in the mice (check right before sacrifice at 24 h post LPS). All mice were given access to food and water at all time. Treatment was initiated three days prior to LPS dosing.
For anesthesia and LPS Dosing, mice were placed in a bell jar, with isoflurane-soaked gauze separated from the mouse by a screen and keep within a scrubber (so the operator isn't anesthetized). Monitored respiratory rate of each mouse and when reduced by half (usually within 5 seconds of going down), then take the mouse out. Each mouse was suspended from incisors across a string tied between two screws on a Plexiglas board and kept at about 70 degrees. Using blunt forceps, grabbed the tongue and hold extended, then instill 50 μL of the LPS solution into the oropharynx using a PennCentury needle/areosolizer. […] Mouse kept in this position for 5-10 seconds to allow distribution of the LPS, then returned to their cage.
Bronchoalveolar lavage fluid (BALF) was collected using rounded tip scissors make a vertical incision though skin but not peritoneum from the lower abdomen up to the jaw. Using two forceps grabbed the edge of the skin and pull apart to get wide exposure to underlying peritoneum and thoracic connective tissue/muscle. Using forceps, picked up peritoneum near the mid abdomen and with rounded tip scissors made a small incision in the peritoneum (avoid cutting gut). Then, while holding the upper edge of the peritoneum, used the rounded tip scissors to extend the incision diagonally to the left upper and right upper quadrants. Moved the liver and intestines out of the way so you can see the underside of the diaphragms. Using the rounded tip scissors, nibbled up toward the diaphragm until you can see the lungs on the other side pull away. Repeated on the other side, being careful to not nick the lungs or else you will not be able to recover lavage. Using the rounded tip scissors, cut through the diaphragm where it inserts on the anterior chest wall. Using the rounded tip scissors and taking care to avoid nicking the lung by moving it away with blunt forceps, cut through the chest wall laterally on both sides until you reach the top of the thorax, then cut across the midline at the top to remove the anterior chest wall. Using forceps pull upward on the heart and cut through at its base to remove. Using the rounded tip scissors, remove the fat pads overlying the trachea taking care not to nick the trachea. Using the rounded tip scissors inserted next to the trachea from the top of the thoracic cavity and kept next to and parallel to the trachea, make a single cut, which allowed removal of the rest of the soft tissue from the trachea but pulling over to the other side and carefully trimming to avoid nicking the trachea. Using sharp forceps carefully placed posterior to the trachea pull suture behind the trachea about 4-5 mm below the cricoid and made a very loose surgical knot (two loops around). Using ophthalmic scissors, very carefully made a cut through the anterior half of the trachea just below the cricoid. Inserted a short blunt needle into tracheal so the tip extended about 5-6 mm below the cricoid and tied a suture tightly with a second knot.

CC(=O)[O-].CC[N+](CC)(CC(=O)Nc1c(C)cccc1C)Cc1ccccc1 [DA, Denatonium acetate] was tested, and the “Decrease in adult respiratory distress syndrome (ARDS), including chronic pulmonary function, diffusion capacity and lung compliance” value [1] was at least 20%, the Decrease in mortality [1] was about 40% and the Patient tolerance [1] was “adequate patient tolerance”. The “Mice found dead on Day 1 (within 24 h after LPS instillation)” value ([2]; mouse, in vivo) was “one”, the Tolerability ([2]; mouse, in vivo, ip, 3 mg/kg) was “well-tolerated” and the Tolerability ([2]; mouse, in vivo, po, 92.4 mg/kg) was “well-tolerated”. The “Other adverse clinical observations” value ([2]; second study, during 3 days of test article administration) was “No other adverse clinical observations were noted”, the “Other adverse clinical observations” value ([3]; first study, during 3 days of test article administration) was “No other adverse clinical observations were noted” and the Tolerability ([3]; iv, 3 mg/kg) was “well-tolerated”. The Tolerability ([3]; po, 92.4 mg/kg) was “well-tolerated”, the “BALF Protein Concentration Mean” value ([4]; first study, DA 3 mg/kg IV QD) was 0.638 mg/mL and the “BALF Protein Concentration Mean” value ([4]; first study, DA 92.4 mg/kg PO BID) was 0.428 mg/mL. The “Effect on BALF protein concentration, in words” value ([4]; first study, PO 92.4 mg/kg BID compared with iv 3 mg/kg QD, Table 3, FIG. 1) was “Only oral administration was effective”, the “BALF Protein Conc. Mean” value ([4]; second study, DA 3 mg/kg IP QD) was 0.727 mg/mL and the “Total Neutrophil Count per Lavage, Mean” value ([4]; second study, DA 3 mg/kg IP) was 610,900. The “BALF Protein Conc. Mean” value ([4]; second study, DA 92.4 mg/kg PO BID) was 0.986 mg/mL, the “Total Neutrophil Count per Lavage, Mean” value ([4]; second study, DA 92.4 mg/kg PO) was 535,080 and the “Effect on BALF total neutrophil count, in words” value ([4]; second study, PO 92.4 mg/kg compared with ip 3 mg/kg, Table 5, FIG. 2) was “Only oral administration was effective”. The “Changes in BALF protein concentrations, in words” value ([4]; second study, oral and IP dosing, Table 4) was “nominal (but non-significant) changes”.

From patent US12427125B2 (priority 2020, dated 2025)
